According to US20130184251A1, “HETEROAROMATIC AND AROMATIC PIPERAZINYL AZETIDINYL AMIDES AS MONOACYLGLYCEROL LIPASE INHIBITORS” (Janssen Pharmaceutica, NV, priority 2009, published 2013):
Read-outs that look alike come from different tables or passages of the source.

Tested on: HeLa cells
Assay: 2-AG accumulation assay using HeLa cells
Format: cell-based
Settings: for Emax at 10 µM: Homo sapiens, HeLa cell homogenate, 2-AG accumulation relative to MAFP; for Ex. 5 % MAFP @ 1 μM: 1 μM compound; for Ex. 5 % MAFP @ 1 μM / Ex. 5 % MAFP @10 μM: 2-AG relative to MAFP, HeLa homogenate; for Ex. 5 % MAFP @10 μM: 10 μM compound
[1] = compound @10 μM (second of two columns with the same head), read-out: Ex. 5 % MAFP @10 μM (second column)
[2] = compound @10 μM as printed (first of two columns with the same head), read-out: Ex. 5 % MAFP @10 μM (first column)

SMILES: O=C(c1ccc(OCc2ccccc2)cc1)N1CC(N2CCN(c3ccccn3)CC2)C1 [compound 112, 1-(1-{[4-(Benzyloxy)phenyl]carbonyl}azetidin-3-yl)-4-pyridin-2-ylpiperazine]
- Emax at 10 µM [1]: 79.2%

SMILES: O=C(/C=C/c1ccc(SC(F)(F)F)cc1)N1CC(N2CCN(c3ccccn3)CC2)C1 [compound 41, 1-Pyridin-2-yl-4-{1-[(2E)-3-(4-[(trifluoromethyl)sulfanyl]phenyl}prop-2-enoyl]azetidin-3-yl}piperazine]
- Emax at 10 µM [1]: 66.8%

SMILES: O=C(c1ccc(-c2ccccc2)c(F)c1)N1CC(N2CCN(c3ccccn3)CC2)C1 [compound 60, 1-{1-[(2-Fluorobiphenyl-4-yl)carbonyl]azetidin-3-yl}-4-pyridin-2-ylpiperazine]
- Emax at 10 µM [1]: 57.8%
- Emax at 10 µM [2]: 28.2%

SMILES: CCN(CC)c1ccc(C(=O)N2CC(N3CCN(c4ccccn4)CC3)C2)cc1 [compound 37, N,N-Diethyl-4-{[3-(4-pyridin-2-ylpiperazin-1-yl)azetidin-1-yl]carbonyl}aniline]
- Emax at 10 µM [1]: 65.9%
- Emax at 10 µM [2]: 32%

SMILES: O=C(c1ccc(-c2ccc(Cl)c(Cl)c2)cc1)N1CC(N2CCN(c3ncccn3)CC2)C1 [compound 11, 2-(4-{1-[(3′,4′-Dichlorobiphenyl-4-yl)carbonyl]azetidin-3-yl}piperazin-1-yl)pyrimidine]
- Emax at 10 µM [1]: 55.2%

SMILES: O=C(c1ccc(N2CCCCCC2)cc1)N1CC(N2CCN(c3ccccn3)CC2)C1 [compound 3, 1-(4-{[3-(4-Pyridin-2-ylpiperazin-1-yl)azetidin-1-yl]carbonyl}phenyl)azepane]
- Emax at 10 µM [1]: 67.3%

SMILES: Cc1nc2cc(C(=O)N3CC(N4CCN(c5ncccn5)CC4)C3)ccc2n1C1CCCCC1 [compound 17, 1-Cyclohexyl-2-methyl-5-{[3-(4-pyrimidin-2-ylpiperazin-1-yl)azetidin-1-yl]carbonyl}-1H-benzimidazole]
- Emax at 10 µM [1]: 83.9%

SMILES: COc1ccc(-c2ccc(C(=O)N3CC(N4CCN(c5ncccn5)CC4)C3)cc2)cc1 [compound 5, 2-(4-{1-[(4′-Methoxybiphenyl-4-yl)carbonyl]azetidin-3-yl}piperazin-1-yl)pyrimidine]
- Emax at 10 µM [1]: 98.8%

SMILES: CN(c1ccc(C(=O)N2CC(N3CCN(c4ccccn4)CC3)C2)cc1)C1CCCCC1 [Compound #1, N-Cyclohexyl-N-methyl-4-{[3-(4-pyridin-2-ylpiperazin-1-yl)azetidin-1-yl]carbonyl}aniline]
- Emax at 10 µM [1]: 70.5%

SMILES: O=C(c1ccc(-c2cccc(C(F)(F)F)c2)cc1)N1CC(N2CCN(c3ncccn3)CC2)C1 [compound 4, 2-[4-(1-{[3′-(Trifluoromethyl)biphenyl-4-yl]carbonyl}azetidin-3-yl)piperazin-1-yl]pyrimidine]
- Emax at 10 µM [1]: 112%

SMILES: O=C(c1ccc(C2CCCCC2)cc1)N1CC(N2CCN(c3ccccn3)CC2)C1 [compound 15, 1-{1-[(4-Cyclohexylphenyl)carbonyl]azetidin-3-yl}-4-pyridin-2-ylpiperazine]
- Emax at 10 µM [1]: 47.6%

SMILES: O=C(c1ccccc1)c1cccc(C(=O)N2CC(N3CCN(c4ccccn4)CC3)C2)c1 [compound 86, Phenyl(3-{[3-(4-pyridin-2-ylpiperazin-1-yl)azetidin-1-yl]carbonyl}phenyl)methanone]
- Emax at 10 µM [1]: 10.4%

SMILES: O=C(c1ccc2nc(C3CCCCC3)oc2c1)N1CC(N2CCN(c3ccccn3)CC2)C1 [Compound #211]
- Ex. 5 % MAFP @ 1 μM: 39.7 % MAFP
- Ex. 5 % MAFP @10 μM: 100.8 % MAFP

SMILES: CC(C)n1c(C(F)(F)F)nc2cc(C(=O)N3CC(N4CCN(c5ncccn5)CC4)C3)ccc21 [compound 16, 1-(1-Methylethyl)-5-{[3-(4-pyrimidin-2-ylpiperazin-1-yl)azetidin-1-yl]carbonyl}-2-(trifluoromethyl)-1H-benzimidazole]
- Emax at 10 µM [1]: 91.5%

SMILES: N#Cc1cccnc1N1CCN(C2CN(C(=O)c3ccc(-c4ccccc4)cc3)C2)CC1 [compound 23, 2-(4-[1-(Biphenyl-4-ylcarbonyl)azetidin-3-yl]piperazin-1-yl}pyridine-3-carbonitrile]
- Emax at 10 µM [1]: 96.8%

SMILES: O=C(c1ccc(C2CCCCC2)cc1)N1CC(N2CCN(c3noc4ccccc34)CC2)C1 [compound 33, 3-(4-{1-[(4-Cyclohexylphenyl)carbonyl]azetidin-3-yl}piperazin-1-yl)-1,2-benzisoxazole]
- Emax at 10 µM [1]: 33%
- Emax at 10 µM [2]: 17.5%

SMILES: COc1ccc(-c2nc3cccc(C(=O)N4CC(N5CCN(c6ccccn6)CC5)C4)c3o2)cc1 [Compound #210]
- Ex. 5 % MAFP @10 μM: 79.5 % MAFP

SMILES: CC(C)(C)c1nc2ccc(C(=O)N3CC(N4CCN(c5ccccn5)CC4)C3)cc2o1 [Compound #209]
- Ex. 5 % MAFP @ 1 μM: 19.9 % MAFP
- Ex. 5 % MAFP @10 μM: 47.3 % MAFP

SMILES: O=C(c1ccc(-c2ccccc2)cc1)N1CC(N2CCN(c3nccs3)CC2)C1 [compound 36, 1-[1-(Biphenyl-4-ylcarbonyl)azetidin-3-yl]-4-(1,3-thiazol-2-yl)piperazine]
- Emax at 10 µM [1]: 91.3%

SMILES: O=C(Nc1ccc(C(=O)N2CC(N3CCN(c4ccccn4)CC3)C2)cc1)C1CCCCC1 [compound 27, N-(4-{[3-(4-Pyridin-2-ylpiperazin-1-yl)azetidin-1-yl]carbonyl}phenyl)cyclohexanecarboxamide]
- Emax at 10 µM [1]: 110%
- Emax at 10 µM [2]: 66.2%

SMILES: CN(CC1CCCCC1)c1ccc(CCC(=O)N2CC(N3CCN(c4ccccn4)CC3)C2)cc1 [compound 40, N-(Cyclohexylmethyl)-N-methyl-4-{3-oxo-3-[3-(4-pyridin-2-ylpiperazin-1-yl)azetidin-1-yl]propyl}aniline]
- Emax at 10 µM [1]: 90.4%
- Emax at 10 µM [2]: 77.3%

SMILES: O=C(c1ccc(-n2cccc2)cc1)N1CC(N2CCN(c3ncccn3)CC2)C1 [compound 25, 2-[4-(1-{[4-(1H-Pyrrol-1-yl)phenyl]carbonyl}azetidin-3-yl)piperazin-1-yl]pyrimidine]
- Emax at 10 µM [1]: 87.7%

SMILES: CN(C)c1ccc(C(=O)N2CC(N3CCN(c4ncccn4)CC3)C2)cc1 [compound 28, N,N-Dimethyl-4-{[3-(4-pyrimidin-2-ylpiperazin-1-yl)azetidin-1-yl]carbonyl}aniline]
- Emax at 10 µM [1]: 82.2%

SMILES: O=C(c1ccc(Oc2ccccc2)cc1)N1CC(N2CCN(c3ncccn3)CC2)C1 [Compound #20, 2-(4-{1-[(4-Phenoxyphenyl)carbonyl]azetidin-3-yl}piperazin-1-yl)pyrimidine]
- Emax at 10 µM [1]: 71.9%

SMILES: O=C(c1ccc(Cc2ccccc2)cc1)N1CC(N2CCN(c3ccccn3)CC2)C1 [compound 30, 1-{1-[(4-Benzylphenyl)carbonyl]azetidin-3-yl}-4-pyridin-2-ylpiperazine]
- Emax at 10 µM [1]: 37.3%
- Emax at 10 µM [2]: 34.7%

SMILES: CCCCc1ccc(C(=O)N2CC(N3CCN(c4ccccn4)CC3)C2)cc1 [compound 35, 1-{1-[(4-Butylphenyl)carbonyl]azetidin-3-yl}-4-pyridin-2-ylpiperazine]
- Emax at 10 µM [1]: 66.7%

SMILES: CC(C)Cn1c(-c2ccccc2)cc2cc(C(=O)N3CC(N4CCN(c5ccccn5)CC4)C3)ccc21 [Compound #214]
- Ex. 5 % MAFP @10 μM: 93.5 % MAFP

SMILES: O=C1c2ccccc2-c2ccc(C(=O)N3CC(N4CCN(c5ccccn5)CC4)C3)cc21 [compound 59, 2-{[3-(4-Pyridin-2-ylpiperazin-1-yl)azetidin-1-yl]carbonyl}-9H-fluoren-9-one]
- Emax at 10 µM [1]: 39.7%
- Emax at 10 µM [2]: 10.2%

SMILES: O=C(c1ccc(-c2ccccc2Cl)cc1)N1CC(N2CCN(c3ncccn3)CC2)C1 [compound 8, 2-(4-{1-[(2′-Chlorobiphenyl-4-yl)carbonyl]azetidin-3-yl}piperazin-1-yl)pyrimidine]
- Emax at 10 µM [1]: 58.3%

SMILES: O=C(c1ccc2nc(C3CCCCC3)oc2c1)N1CC(N2CCN(c3ncccn3)CC2)C1 [compound 10, 2-Cyclohexyl-6-{[3-(4-pyrimidin-2-ylpiperazin-1-yl)azetidin-1-yl]carbonyl}-1,3-benzoxazole]
- Emax at 10 µM [1]: 115%
- Emax at 10 µM [2]: 97.8%

SMILES: O=C(c1ccc(-c2ccccc2)c(F)c1)N1CC(N2CCN(c3ncccn3)CC2)C1 [compound 26, 2-(4-{1-[(2-Fluorobiphenyl-4-yl)carbonyl]azetidin-3-yl}piperazin-1-yl)pyrimidine]
- Emax at 10 µM [1]: 125%

SMILES: O=C(c1ccc(N2CCCC2)cc1)N1CC(N2CCN(c3ncccn3)CC2)C1 [Compound #2, 2-(4-{1-[(4-Pyrrolidin-1-ylphenyl)carbonyl]azetidin-3-yl}piperazin-1-yl)pyrimidine]
- Emax at 10 µM [1]: 105%

SMILES: O=C(c1ccc(-c2ccc(F)cc2)cc1)N1CC(N2CCN(c3ncccn3)CC2)C1 [compound 9, 2-(4-{1-[(4′-Fluorobiphenyl-4-yl)carbonyl]azetidin-3-yl}piperazin-1-yl)pyrimidine]
- Emax at 10 µM [1]: 81%

SMILES: CCCc1cc2cc(C(=O)N3CC(N4CCN(c5ccccn5)CC4)C3)ccc2n1C [Compound #213]
- Ex. 5 % MAFP @10 μM: 61.1 % MAFP

SMILES: O=C(c1ccc(OCc2ccccc2)cc1)N1CC(N2CCN(c3ncccn3)CC2)C1 [compound 111, 2-[4-(1-{[4-(Benzyloxy)phenyl]carbonyl}azetidin-3-yl)piperazin-1-yl]pyrimidine]
- Emax at 10 µM [1]: 106%

SMILES: O=C(c1cccc2c1Cc1ccccc1-2)N1CC(N2CCN(c3ccccn3)CC2)C1 [compound 96, 1-[1-(9H-Fluoren-1-ylcarbonyl)azetidin-3-yl]-4-pyridin-2-ylpiperazine]
- Emax at 10 µM [1]: 0%

SMILES: O=C(c1cccc(-c2ccc(F)cc2)c1)N1CC(N2CCN(c3ccccn3)CC2)C1 [compound 52, 1-{1-[(4′-Fluorobiphenyl-3-yl)carbonyl]azetidin-3-yl}-4-pyridin-2-ylpiperazine]
- Emax at 10 µM [1]: 52.2%
- Emax at 10 µM [2]: 28%

SMILES: O=C(c1ccc(C2CCCCC2)cc1)N1CC(N2CCN(c3nccs3)CC2)C1 [compound 6, 1-{1-[(4-Cyclohexylphenyl)carbonyl]azetidin-3-yl}-4-(1,3-thiazol-2-yl)piperazine]
- Emax at 10 µM [1]: 41.5%
- Emax at 10 µM [2]: 24.3%

SMILES: Cc1nc2cc(C(=O)N3CC(N4CCN(c5ncccn5)CC4)C3)ccc2n1-c1ccccc1 [compound 14, 2-Methyl-1-phenyl-5-{[3-(4-pyrimidin-2-ylpiperazin-1-yl)azetidin-1-yl]carbonyl}-1H-benzimidazole]
- Emax at 10 µM [1]: 106%

SMILES: CC(C)Cc1cc2cc(C(=O)N3CC(N4CCN(c5ccccn5)CC4)C3)ccc2n1CC(C)C [Compound #212]
- Ex. 5 % MAFP @10 μM: 72.9 % MAFP
